The results in this text go back to US6506758B2, “Indole derivatives useful A.O. for the treatment of osteoporosis” (SmithKline Beecham Laboratoires Pharmceutiques, priority 1997, dated 2003).

The structures appear in SMILES notation.

Data set [1] addresses bafilomycin-sensitive ATPase of chicken osteoclast. The data set can be described thus: Inhibition of bafilomycin-sensitive ATPase activity in purified chicken osteoclast membrane vesicles (Pi release). The data set is classed as biochemical. Particulars: membrane source not given, chicken osteoclast assumed. On the procedure: Preparation of Crude Bone Microsomes from Calcium-starved Egg-laying Hens
Vesicles were prepared from medullar bone obtained from tibiae and femurs or egg-laying hens which were calcium-starved for at least 15 days. Briefly, bone fragments were scraped with a 24 scalpel blade, suspended in 40 ml of isolation medium (0.2 M sucrose, 50 mM KCl, 10 mM Hepes, 1 mM EGTA, 2 mM dithiotheitrol, pH 7.4) and filtered through a 100 μm pore size nylon mesh. The whole procedure was performed at 4° C. After homogenisation in a potter (20 strokes) in 40 ml of isolation medium an initial centrifugation (6,500×gmax×20 min) was performed to remove mitochondria and lysosomes. The supernatant was centrifuged at 100,000×gmax for 1 hr and the pellet was collected in 1 ml of isolation medium, divided into 200 μl aliquots, immediately frozen in liquid nitrogen and stored at −80° C. The protein content was determined using a Biorad colourimetric kit according to Bradford [M. Bradford, Anal. Biochem., 72, 248 (1976)]. For the proton transport assay, 5-10 μl of membranes were used.
Purification of osteoclast membranes. 1 ml of crude microsomal vesicles prepared above were applied (about 0.2 ml per tube ) on the top of a sucrose step-gradient consisting of 3.5 ml of 15%, 30% and 45% (w/w) sucrose in isolation medium and centrifuged at 280,000 gmax for 2 h (SW 41 Ti rotor). After centrifugation the 30-45% sucrose interfaces were collected, diluted approx. 20-fold in isolation medium and pelletted at 100,000 gmax for 1 hour (SW 28 rotor). […]
Inhibition of bafilomycin-sensitive ATPase activity was assessed in purified membrane vesicles by measuring the release of inorganic phosphate (Pi) during 30 min of incubation at 37° C. in a 96-well plate either in the presence or in the absence of bafilomycin A1. […] Absorbance at 650 nm was measured after 2 min using a microplate reader. Results are expressed as nmol (Pi)×mg protein^−1×min^−1 and, for each experiment, represent the mean±sem of triplicates.

Data set [2] deals with bafilomycin-sensitive ATPase in human kidney membranes. Description: Inhibition of bafilomycin-sensitive ATPase in human kidney membranes. The format is biochemical. The following applies: read-out: IC50 h kidney. How it is done:
Human kidney membranes were obtained from the cortex of a human kidney, frozen immediately after surgery, according to the method reported in the literature for bovine kidney (S. Gluck, J Biol. Chem., 265, 21957 (1990)).
Inhibition of bafilomycin-sensitive ATPase activity was assessed in purified membrane vesicles by measuring the release of inorganic phosphate (Pi) during 30 min of incubation at 37° C. in a 96-well plate either in the presence or in the absence of bafilomycin A1. The reaction medium contained 1 mM ATP, 10 mM HEPES-Tris pH 8, 50 mM KCl, 5 uM valinomycin, 5 uM nigericin, 1 mM CDTA-Tris,100 uM ammonium molybdate, 0.2 M sucrose and membranes (20 ug protein/ml). The reaction was initiated by MgSO4 (8-arm pipette) and stopped, after 30 min, by addition of 4 volumes of the malachite green reagent (96-arm pipette) prepared according to Chan [Anal. Biochem. 157, 375 (1986)]. Absorbance at 650 nm was measured after 2 min using a microplate reader. Results are expressed as nmol (Pi)×mg protein^−1×min^−1 and, for each experiment, represent the mean±sem of triplicates.

For the compound `CN(C)CCCNC(=O)c1cccc(-c2cc3cc(Cl)c(Cl)cc3[nH]2)c1` [Example 5, 3-(5,6-Dichloro-1H-indol-2-yl)-N-(3-dimethylaminopropyl)benzamide], the melting point – broadly, the temperature, or range, at which the solid turns liquid – is 204 °C.
For `CN1C(C)(C)CC(NC(=O)c2ccc(-c3cc4cc(Cl)c(Cl)cc4[nH]3)cc2)CC1(C)C` [Example 1, 4-(5,6-Dichloro-1H-indol-2-yl)-N-(1,2,2,6,6-pentamethypiperidin-4-yl)benzamide], the IC50 (as a rule, the concentration needed to halve the response being measured) in data set [1] worked out at 0.35 µM; in data set [2], 1250 nM.
In turn, `COc1cc(-c2cc3cc(Cl)c(Cl)cc3[nH]2)ccc1C(=O)NC1CC(C)(C)N(C)C(C)(C)C1` [Example 3, 4-(5,6-Dichloro-1H-indol-2-yl)-2-methoxy-N-(1,2,2,6,6-pentamethylpiperidin-4-yl)-benzamide] came in with an IC50 in data set [1] of 1.3 µM.
Regarding `COc1cc(C(=O)NC2CC(C)(C)N(C)C(C)(C)C2)ccc1-c1cc2cc(Cl)c(Cl)cc2[nH]1` [Example 2, 4-(5,6-Dichloro-1H-indol-2-yl)-3-methoxy-N-(1,2,2,6,6-pentamethylpiperidin-4yl)-benzamide], the IC50 in data set [1] was determined as 0.096 µM; in data set [2], 200 nM.
